Consider 19 compounds from patent publication US20250188110A1, “SPECIFIC SMALL MOLECULE INHIBITORS THAT BLOCK KMT9 METHYLTRANSFERASE ACTIVITY AND FUNCTION” (ALBERT-LUDWIGS-UNIVERSITÄT FREIBURG, priority 2021, published 2025).

The IC50 is the concentration at which inhibition is half-maximal. Read a high IC50 as weaker potency.

Molecules are shown by their SMILES.

Experiment [1] deals with T1, KMT9 (Homo sapiens, UniProt Q9Y5N5).
T1 sequence (Q9Y5N5 1-214): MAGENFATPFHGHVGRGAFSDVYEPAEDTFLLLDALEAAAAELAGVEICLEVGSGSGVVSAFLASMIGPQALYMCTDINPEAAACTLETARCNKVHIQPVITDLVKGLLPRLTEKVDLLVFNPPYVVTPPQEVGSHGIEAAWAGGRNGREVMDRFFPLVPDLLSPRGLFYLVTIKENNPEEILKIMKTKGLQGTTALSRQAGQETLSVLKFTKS
T1 sequence (Q9UI30 1-120 isoform Q9UI30-2 partner): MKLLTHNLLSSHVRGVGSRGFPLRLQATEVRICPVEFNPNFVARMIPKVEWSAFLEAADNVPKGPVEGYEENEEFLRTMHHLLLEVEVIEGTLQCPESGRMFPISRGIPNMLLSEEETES
As to the kind of experiment: Microscale thermophoresis (MST) KMT9 binding. Conditions: microscale thermophoresis, His-tag labelled KMT9 (20 nM); read-out: MST. The procedure, abridged: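 His-tagged KMT9 (20 nM), RED-Tris-NTA labelled, titrated with varying compound concentrations in 25 mM HEPES pH 7.5, 100 mM NaCl, 1 mM DTT, 0.05% Tween. MST at 40% MST and 100% LED power, Nano-RED excitation; Kd binned A ≤10 nM, B 10–100, C 100–1000, D >1000 nM.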
(In general: Microscale thermophoresis detects binding through changes in fluorescence in a small temperature gradient.)

Experiment [2] concerns the target T1, KMT9. The experiment in a line: KMT9 thermal shift assay (SyproOrange). Type of experiment: binding. Conditions: ΔTm; 500 µM compound, 2 μM KMT9, 5X SO; read-out: Thermal shift. An outline of the steps: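 Recombinant KMT9 was incubated with compound and SyproOrange at 25° C in 50 mM BTP pH 8.5, 1 mM MgCl2, 1 mM DTT. It was then heated from 20° C to 95° C at 1° C per 15 s with fluorescence read each step. Tm came from a Boltzmann sigmoidal fit; ΔTm relative to DMSO control, binned in 5 K ranges.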

Experiment [3] deals with T1, KMT9. The experiment in a line: KMT9 methyltransferase inhibition assay, 3H-SAM scintillation (entries 1-154). Type of experiment: biochemical. Conditions: entries 1-154: 3H-SAM assay, 25 nM KMT9, 5 μM ETF1. An outline of the steps: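 Final 25 nM KMT9, 5 μM ETF1 (residues 140-275), 0.3 μM 3H-SAM plus 0.7 μM SAM in pH 8.5 BTP buffer, 2 h at 30° C. TCA-quenched, filter-washed, methylation counted by scintillation; % inhibition vs DMSO and no-enzyme controls, IC50 from four-parameter fit.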

Regarding `CNc1ncnc2c1ccn2[C@@H]1C[C@H](CN(CCCNCCc2cccc(Oc3ccccc3)c2)CC2CC2)[C@@H](O)[C@H]1O` [360 (270)], the Kd at KMT9 [1] lay in the range of 100 to 1000 nM. Moreover, the ΔTm at 500 µM on KMT9 [2] is not above 10 °C. In addition, the IC50 against KMT9 [3] was more than 10000 nM.
In the same order, the values of `CNc1ncnc2c1ccn2[C@@H]1C[C@H](CN(CCCNCCc2cccc(Oc3ccccc3)c2)C(C)C)[C@@H](O)[C@H]1O` [362 (266), (1S,2R,3R,5R)-3-((isopropyl(3-((3-phenoxyphenethyl)amino)propyl)amino)methyl)-5-(4-(methylamino)-7H-pyrrolo[2,3-d]pyrimidin-7-yl) cyclopentane-1,2-diol] are 100 to 1000 nM, 10 to 15 °C and 1000 to 10000 nM.
In the same order, the values of `CCN(CCCNCCc1cccc(Oc2ccccc2)c1)C[C@H]1C[C@@H](n2ccc3c(NC)ncnc32)[C@H](O)[C@@H]1O` [364 (268), (1S,2R,3R,5R)-3-((ethyl(3-((3-phenoxyphenethyl)amino)propyl)amino)methyl)-5-(4-(methylamino)-7H-pyrrolo[2,3-d]pyrimidin-7-yl) cyclopentane-1,2-diol] are 100 to 1000 nM, 10 to 15 °C and 1000 to 10000 nM.
In the same order, the values of `CNc1ncnc2c1ccn2[C@@H]1C[C@H](CN(CCCNCCc2cccc(Oc3ccccc3)c2)NC)[C@@H](O)[C@H]1O` [367 (271), (1S,2R,3R,5R)-3-((2-methyl-1-(3-((3-phenoxyphenethyl)amino)propyl) hydrazineyl)methyl)-5-(4-(methylamino)-7H-pyrrolo[2,3-d]pyrimidin-7-yl) cyclopentane-1,2-diol] are more than 1000 nM, not above 10 °C and more than 10000 nM.
In the case of `CNc1ncnc2c1ccn2[C@@H]1C[C@H](CNCCCNCCc2ccc3ccccc3c2)[C@@H](O)[C@H]1O` [368 (272), (1R,2S,3R,5R)-3-(4-(methylamino)-7H-pyrrolo[2,3-a]pyrimidin-7-yl)-5-(((3-((2-(naphthalen-2-yl)ethyl)amino)propyl)amino)methyl) cyclopentane-1,2-diol], on KMT9 [1], the Kd is more than 1000 nM. Also, the ΔTm at 500 µM at KMT9 [2] is 10 to 15 °C. For the same compound, the IC50 against KMT9 [3] is more than 10000 nM.
In the same order, the values of `CNc1ncnc2c1ccn2[C@@H]1C[C@H](CNCCCNCCc2ccc(Oc3ccc(Cl)cc3)c(F)c2)[C@@H](O)[C@H]1O` [370 (274), (1S,2R,3R,5R)-3-(((3-((4-(4-chlorophenoxy)-3-fluorophenethyl)amino)propyl)amino)methyl)-5-(4-(methylamino)-7H-pyrrolo[2,3-a]pyrimidin-7-yl) cyclopentane-1,2-diol] are more than 1000 nM, 10 to 15 °C and 1000 to 10000 nM.
As to `CNc1ncnc2c1ccn2[C@@H]1C[C@H](CNCCCNCCc2cccc(Sc3ccccc3)c2)[C@@H](O)[C@H]1O` [372 (276), (1R,2S,3R,5R)-3-(4-(methylamino)-7H-pyrrolo[2,3-a]pyrimidin-7-yl)-5-(((3-((3-(phenylthio)phenethyl)amino)propyl)amino)methyl) cyclopentane-1,2-diol], the Kd at KMT9 [1] was in the range of 100 to 1000 nM. Also, the ΔTm at 500 µM on KMT9 [2] was in the range of 10 to 15 °C. On KMT9 [3], the IC50 was 1000 to 10000 nM.
Taken in the same sequence, the figures for `CCN(CCCNCCc1ccc2ccccc2c1)C[C@H]1C[C@@H](n2ccc3c(NC)ncnc32)[C@H](O)[C@@H]1O` [375 (279), (1S,2R,3R,5R)-3-((ethyl(3-((2-(naphthalen-2-yl)ethyl)amino)propyl)amino)methyl)-5-(4-(methylamino)-7H-pyrrolo[2,3-d]pyrimidin-7-yl) cyclopentane-1,2-diol] were 100 to 1000 nM, 10 to 15 °C and more than 10000 nM.
`CNc1ncnc2c1ccn2[C@@H]1C[C@H](CN(CCCNCCc2ccc3ccccc3c2)CC(F)(F)F)[C@@H](O)[C@H]1O` [377 (281), (1R,2S,3R,5R)-3-(4-(methylamino)-7H-pyrrolo[2,3-d]pyrimidin-7-yl)-5-(((3-((2-(naphthalen-2-yl)ethyl)amino)propyl)(2,2,2-trifluoroethyl)amino)methyl) cyclopentane-1,2-diol]: the Kd at KMT9 [1] is more than 1000 nM. In addition, the ΔTm at 500 µM on KMT9 [2] was not above 10 °C. At KMT9 [3], this compound displayed an IC50 of more than 10000 nM.
For `NC[C@H]1O[C@@H](n2cc3c4c(ncnc42)NCCC3)[C@H](O)[C@@H]1O` [416 (287), (2R,3S,4R,5R)-2-(aminomethyl)-5-(6,7,8,9-tetrahydro-2H-2,3,5,6-tetraazabenzo[cd]azulen-2-yl) tetrahydrofuran-3,4-diol], on KMT9 [1], the Kd was more than 1000 nM. The ΔTm at 500 µM on KMT9 [2] is not above 10 °C. For the same compound, at KMT9 [3], the IC50 is more than 10000 nM.
With `CNCCC(=O)N(C)C[C@H]1C[C@@H](n2ccc3c(NC)ncnc32)[C@H](O)[C@@H]1O` [417 (288), N-(((1R,2R,3S,4R)-2,3-dihydroxy-4-(4-(methylamino)-7H-pyrrolo[2,3-d]pyrimidin-7-yl)cyclopentyl)methyl)-N-methyl-3-(methylamino)propanamide], the Kd at KMT9 [1] is more than 1000 nM. At KMT9 [2], the ΔTm at 500 µM was not above 10 °C. For the same compound, at KMT9 [3], the IC50 is more than 10000 nM.
As for `CNc1ncnc2c1ccn2[C@@H]1C[C@H](CNC(=O)C2CCCNC2)[C@@H](O)[C@H]1O` (stereo partly drawn) [418 (289), N-(((1R,2R,3S,4R)-2,3-dihydroxy-4-(4-(methylamino)-7H-pyrrolo[2,3-d]pyrimidin-7-yl)cyclopentyl)methyl) piperidine-3-carboxamide], the Kd on KMT9 [1] was more than 1000 nM. The ΔTm at 500 µM on KMT9 [2] was not above 10 °C. The IC50 at KMT9 [3] is more than 10000 nM.
Taken in the same sequence, the figures for `CNc1ncnc2c1ccn2[C@@H]1C[C@H](COCCNCCc2ccccc2)[C@@H](O)[C@H]1O` [419 (290), (1R,2S,3R,5R)-3-[4-(Methylamino)pyrrolo[2,3-d]pyrimidin-7-yl]-5-({2-[(2-phenylethyl)amino]ethoxy}methyl) cyclopentane-1,2-diol] were more than 1000 nM, not above 10 °C and more than 10000 nM.
With `CNc1ncnc2c1ccn2[C@@H]1C[C@H](COCCCNCCc2ccccc2)[C@@H](O)[C@H]1O` [420 (291), (1R,2S,3R,5R)-3-(4-(methylamino)-7H-pyrrolo[2,3-d]pyrimidin-7-yl)-5-((3-(phenethylamino)propoxy)methyl) cyclopentane-1,2-diol], the Kd on KMT9 [1] is more than 1000 nM. In addition, on KMT9 [2], the ΔTm at 500 µM is not above 10 °C. Also, the IC50 against KMT9 [3] was more than 10000 nM.
As to `CNc1ncnc2c1ccn2[C@@H]1C[C@H](COCCCNCCc2cccc(Oc3ccccc3)c2)[C@@H](O)[C@H]1O` [421 (292), (1R,2S,3R,5R)-3-(4-(Methylamino)-7H-pyrrolo[2,3-d]pyrimidin-7-yl)-5-((3-((3-phenoxyphenethyl)amino)propoxy)methyl) cyclopentane-1,2-diol], at KMT9 [1], the Kd is more than 1000 nM. In addition, on KMT9 [2], the ΔTm at 500 µM is not above 10 °C. For the same compound, on KMT9 [3], the IC50 is more than 10000 nM.
In the same order, the values of `CNc1ncnc2c1ccn2[C@@H]1C[C@H](/C=C/CCNCCc2ccccc2)[C@@H](O)[C@H]1O` [422 (293), (1R,2S,3R,5R)-3-(4-(methylamino)-7H-pyrrolo[2,3-d]pyrimidin-7-yl)-5-((E)-4-(phenethylamino)but-1-en-1-yl) cyclopentane-1,2-diol] are more than 1000 nM, not above 10 °C and more than 10000 nM.
Taken in the same sequence, the figures for `CNc1ncnc2c1ccn2[C@@H]1C[C@H](CCCCNCCc2ccccc2)[C@@H](O)[C@H]1O` [423 (294), (1R,2S,3R,5S)-3-(4-(methylamino)-7H-pyrrolo[2,3-d]pyrimidin-7-yl)-5-(4-(phenethylamino)butyl) cyclopentane-1,2-diol] were more than 1000 nM, not above 10 °C and more than 10000 nM.
In the same order, the values of `CNc1ncnc2c1ccn2[C@@H]1C[C@H](CCCCCNCCc2ccccc2)[C@@H](O)[C@H]1O` [424 (295), (1R,2S,3R,5S)-3-(4-(Methylamino)-7H-pyrrolo[2,3-d]pyrimidin-7-yl)-5-(5-(phenethylamino)pentyl) cyclopentane-1,2-diol] are 100 to 1000 nM, 10 to 15 °C and 1000 to 10000 nM.
Turning to `CNc1ncnc2c1ccn2[C@@H]1C[C@H](/C=C/CCCNCCc2ccccc2)[C@@H](O)[C@H]1O` [425 (296), (1R,2S,3R,5R)-3-(4-(methylamino)-7H-pyrrolo[2,3-d]pyrimidin-7-yl)-5-((E)-5-(phenethylamino)pent-1-en-1-yl) cyclopentane-1,2-diol], the Kd on KMT9 [1] is more than 1000 nM. Further, the ΔTm at 500 µM on KMT9 [2] is not above 10 °C. On KMT9 [3], this compound gave an IC50 of more than 10000 nM.
